According to patent US20210045385A1, “PYRIDAZINONE-SUBSTITUTED KETOXIMES AS HERBICIDES” (FMC Corporation, priority 2018, published 2021):

What was measured:
Type in all cases: in vivo
[1] = test system: barnyardgrass (Echinochloa crus-galli); test: Test A postemergence, visual plant response rating; details: for Barnyardgrass plant response rating (0 to 100 scale): 500 g ai/ha, postemergence, 0 is no effect, 100 is complete control; for Barnyardgrass plant response rating: Postemergence, 125 g ai/ha, 0 to 100 scale (0 no effect, 100 complete control)
Outline: (§1)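 Greenhouse pot test in loam–sand soil mix: compound in a surfactant-containing non-phytotoxic solvent applied preemergence (directed soil spray) or postemergence (one- to two-leaf plants, 2–10 cm). Injury scored visually after ~10 days, 0–100.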

[2] = test system: wheat (Triticum aestivum); test: Test A postemergence, visual plant response rating; details: for Wheat plant response rating (0 to 100 scale): 500 g ai/ha, postemergence, 0 is no effect, 100 is complete control; for Wheat plant response rating: Postemergence, 125 g ai/ha, 0 to 100 scale (0 no effect, 100 complete control)
Outline: as §1

[3] = test system: Italian ryegrass (Lolium multiflorum); test: Test A postemergence, visual plant response rating; details: for Ryegrass, Italian plant response rating (0 to 100 scale): 500 g ai/ha, postemergence, 0 is no effect, 100 is complete control; for Ryegrass, Italian plant response rating: Postemergence, 125 g ai/ha, 0 to 100 scale (0 no effect, 100 complete control)
Outline: as §1

corn (Zea mays) = test: Test A postemergence, visual plant response rating; details: for Corn plant response rating (0 to 100 scale): 500 g ai/ha, postemergence, 0 is no effect, 100 is complete control; for Corn plant response rating: Postemergence, 125 g ai/ha, 0 to 100 scale (0 no effect, 100 complete control)
Outline: as §1

[4] = test system: ragweed (common ragweed, Ambrosia elatior); test: Test A postemergence, visual plant response rating; details: for Ragweed plant response rating (0 to 100 scale): 500 g ai/ha, postemergence, 0 is no effect, 100 is complete control; for Ragweed plant response rating: Postemergence, 125 g ai/ha, 0 to 100 scale (0 no effect, 100 complete control)
Outline: as §1

[5] = test system: foxtail, green (green foxtail, Setaria viridis); test: Test A postemergence, visual plant response rating; details: for Foxtail, Green plant response rating (0 to 100 scale): 500 g ai/ha, postemergence, 0 is no effect, 100 is complete control; for Foxtail, Green plant response rating: Postemergence, 125 g ai/ha, 0 to 100 scale (0 no effect, 100 complete control)
Outline: as §1

kochia (Kochia scoparia) [6] = test: Test A postemergence, visual plant response rating; details: for Kochia plant response rating (0 to 100 scale): 500 g ai/ha, postemergence, 0 is no effect, 100 is complete control; for Kochia plant response rating: Postemergence, 125 g ai/ha, 0 to 100 scale (0 no effect, 100 complete control)
Outline: as §1

[7] = test system: blackgrass (Alopecurus myosuroides); test: Test A postemergence, visual plant response rating; details: for Blackgrass plant response rating (0 to 100 scale): 500 g ai/ha, postemergence, 0 is no effect, 100 is complete control; for Blackgrass plant response rating: Postemergence, 125 g ai/ha, 0 to 100 scale (0 no effect, 100 complete control)
Outline: as §1

[8] = test system: galium (catchweed bedstraw, Galium aparine); test: Test A postemergence, visual plant response rating; details: for Galium plant response rating (0 to 100 scale): 500 g ai/ha, postemergence, 0 is no effect, 100 is complete control; for Galium plant response rating: Postemergence, 125 g ai/ha, 0 to 100 scale (0 no effect, 100 complete control)
Outline: as §1

[9] = test system: pigweed (Amaranthus retroflexus); test: Test A postemergence, visual plant response rating; details: for Pigweed plant response rating (0 to 100 scale): 500 g ai/ha, postemergence, 0 is no effect, 100 is complete control; for Pigweed plant response rating: Postemergence, 125 g ai/ha, 0 to 100 scale (0 no effect, 100 complete control)
Outline: as §1

[10] = test system: barnyardgrass (Echinochloa crus-galli); test: Test B flooded paddy test, visual plant response rating; details: 250 g ai/ha, Flood, applied to paddy water, 2-leaf stage, evaluated after 13 to 15 days
Outline: (§2)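 Compounds added straight into paddy water of pots flooded to 3 cm, with 2-leaf-stage plants of the four species; water level held throughout.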

[11] = test system: sedge, umbrella (small-flower umbrella sedge, Cyperus difformis); test: as above; details: 250 g ai/ha, Flood, applied to paddy water, 2-leaf stage, evaluated after 13 to 15 days
Outline: as §2

[12] = test system: ducksalad (Heteranhera limosa); test: as above; details: 250 g ai/ha, Flood, applied to paddy water, 2-leaf stage, evaluated after 13 to 15 days
Outline: as §2

rice (Oryza sativa) = test: as above; details: 250 g ai/ha, Flood, applied to paddy water, 2-leaf stage, evaluated after 13 to 15 days
Outline: as §2

[13] = test system: barnyardgrass (Echinochloa crus-galli); test: Test A preemergence, visual plant response rating; details: for Barnyardgrass plant response rating: 125 g ai/ha, preemergence, 0 to 100 scale, 0 no effect, 100 complete control; for Barnyardgrass plant response rating (0 to 100 scale): 500 g ai/ha Preemergence, approx. 10 days
Outline: as §1

[14] = test system: Italian ryegrass (Lolium multiflorum); test: Test A preemergence, visual plant response rating; details: for Ryegrass, Italian plant response rating: 125 g ai/ha, preemergence, 0 to 100 scale, 0 no effect, 100 complete control; for Ryegrass, Italian plant response rating (0 to 100 scale): 500 g ai/ha Preemergence, approx. 10 days
Outline: as §1

[15] = test system: ragweed (common ragweed, Ambrosia elatior); test: Test A preemergence, visual plant response rating; details: for Ragweed plant response rating: 125 g ai/ha, preemergence, 0 to 100 scale, 0 no effect, 100 complete control; for Ragweed plant response rating (0 to 100 scale): 500 g ai/ha Preemergence, approx. 10 days
Outline: as §1

[16] = test system: foxtail, green (green foxtail, Setaria viridis); test: Test A preemergence, visual plant response rating; details: for Foxtail, Green plant response rating: 125 g ai/ha, preemergence, 0 to 100 scale, 0 no effect, 100 complete control; for Foxtail, Green plant response rating (0 to 100 scale): 500 g ai/ha Preemergence, approx. 10 days
Outline: as §1

kochia (Kochia scoparia) [17] = test: Test A preemergence, visual plant response rating; details: for Kochia plant response rating: 125 g ai/ha, preemergence, 0 to 100 scale, 0 no effect, 100 complete control; for Kochia plant response rating (0 to 100 scale): 500 g ai/ha Preemergence, approx. 10 days
Outline: as §1

[18] = test system: pigweed (Amaranthus retroflexus); test: Test A preemergence, visual plant response rating; details: for Pigweed plant response rating: 125 g ai/ha, preemergence, 0 to 100 scale, 0 no effect, 100 complete control; for Pigweed plant response rating (0 to 100 scale): 500 g ai/ha Preemergence, approx. 10 days
Outline: as §1

SMILES	Barnyardgrass plant response rating (0 to 100 scale) [1]	Barnyardgrass plant response rating [1]	Wheat plant response rating (0 to 100 scale) [2]	Wheat plant response rating [2]	Ryegrass, Italian plant response rating (0 to 100 scale) [3]	Ryegrass, Italian plant response rating [3]	Corn plant response rating (0 to 100 scale) (corn (Zea mays))	Corn plant response rating (corn (Zea mays))	Ragweed plant response rating (0 to 100 scale) [4]	Ragweed plant response rating [4]	Foxtail, Green plant response rating (0 to 100 scale) [5]	Foxtail, Green plant response rating [5]	Kochia plant response rating (0 to 100 scale) (kochia (Kochia scoparia) [6])	Kochia plant response rating (kochia (Kochia scoparia) [6])	Blackgrass plant response rating (0 to 100 scale) [7]	Blackgrass plant response rating [7]	Galium plant response rating (0 to 100 scale) [8]	Galium plant response rating [8]	Pigweed plant response rating (0 to 100 scale) [9]	Pigweed plant response rating [9]	other results
CON=C(c1cccc(C)c1)c1c(O)c(Cl)nn(C)c1=O [Compound 128]	30	10	10	0	10	0	0	0	80	50	30	20	70	50	10	0	90	70	60	30	Plant response rating, Barnyardgrass (0 to 100 scale, 0 is no effect, 100 is complete control) [10]: 0; Plant response rating, Sedge, Umbrella (0 to 100 scale, 0 is no effect, 100 is complete control) [11]: 0; Plant response rating, Ducksalad (0 to 100 scale, 0 is no effect, 100 is complete control) [12]: 40; Plant response rating, Rice (0 to 100 scale, 0 is no effect, 100 is complete control) (rice (Oryza sativa)): 30; Barnyardgrass plant response rating [13]: 0; Barnyardgrass plant response rating (0 to 100 scale) [13]: 30; Ryegrass, Italian plant response rating [14]: 0; Ryegrass, Italian plant response rating (0 to 100 scale) [14]: 20; Ragweed plant response rating [15]: 60; Ragweed plant response rating (0 to 100 scale) [15]: 80; Foxtail, Green plant response rating [16]: 0; Foxtail, Green plant response rating (0 to 100 scale) [16]: 10; Kochia plant response rating (kochia (Kochia scoparia) [17]): 30; Kochia plant response rating (0 to 100 scale) (kochia (Kochia scoparia) [17]): 80; Pigweed plant response rating [18]: 100; Pigweed plant response rating (0 to 100 scale) [18]: 80
CO/N=C(\c1cc(C)ccc1C)c1c(O)c(C)nn(C)c1=O [Compound 66]	30	10	10	0	80	30	0	0	50	40	20	0	40	20	50	0	80	60	50	50	Plant response rating, Barnyardgrass (0 to 100 scale, 0 is no effect, 100 is complete control) [10]: 0; Plant response rating, Sedge, Umbrella (0 to 100 scale, 0 is no effect, 100 is complete control) [11]: 0; Plant response rating, Ducksalad (0 to 100 scale, 0 is no effect, 100 is complete control) [12]: 0; Plant response rating, Rice (0 to 100 scale, 0 is no effect, 100 is complete control) (rice (Oryza sativa)): 0; Barnyardgrass plant response rating [13]: 0; Barnyardgrass plant response rating (0 to 100 scale) [13]: 20; Ryegrass, Italian plant response rating [14]: 30; Ryegrass, Italian plant response rating (0 to 100 scale) [14]: 50; Ragweed plant response rating [15]: 20; Ragweed plant response rating (0 to 100 scale) [15]: 50; Foxtail, Green plant response rating [16]: 30; Foxtail, Green plant response rating (0 to 100 scale) [16]: 60; Kochia plant response rating (kochia (Kochia scoparia) [17]): 0; Kochia plant response rating (0 to 100 scale) (kochia (Kochia scoparia) [17]): 20; Pigweed plant response rating [18]: 30; Pigweed plant response rating (0 to 100 scale) [18]: 80
